Experimental data published in US10201568B2, “Brain, spinal, and nerve injury treatment” (EUSTRALIS PHARMACEUTICALS LIMITED, priority 2000, dated 2019).

Tests used:
brain injured animals [1] = experiment: otarod test, motor outcome after brain injury; assay type: in vivo
Description: (§1) A number of commercially synthesized substance P receptor antagonists are currently available from standard scientific chemical suppliers, as is apparent form Tables 1, 2, and 3. We chose to use the compound N-acetyl-L-tryptophan based on its low lipid solubility that limits its ability to naturally cross the blood brain barrier and the fact that it is relatively inexpensive.

[2] = limits its ability to naturally cross the blood brain barrier; cited from earlier work
[3] = tested on: blood brain barrier permeability; experiment: brain penetration of Evans blue after injury; assay type: in vivo; settings: at 5 hours after injury (time of maximum blood brain barrier permeability)
Procedure: (§2) This was consistent with the observation that N-acetyl-L-tryptophan reduced brain penetration of Evans blue at 5 hours after injury: the time associated with maximum blood brain barrier permeability and reduced vasogenic oedema formation.

brain injured animals [4] = experiment: brain water accumulation (cerebral oedema) after injury; assay type: in vivo; settings: at 24 hours after injury, compared to vehicle treated controls
Procedure: as §2

brain injured animals [5] = experiment: Barnes Circular Maze, cognitive outcome after brain injury; assay type: in vivo
Description: as §1

[6] = intravenous 246 mg/kg (saline vehicle) at 30 minutes after brain injury, apparent at 24 hours, persisted for 14 day assessment period, vs vehicle

## CC(=O)N[C@@H](Cc1c[nH]c2ccccc12)C(=O)O [N-acetyl-L-tryptophan]
Brain injured animals [1]; 24.6 mg/kg
  motor outcome: less of a beneficial effect
Brain injured animals [1]; [6]
  motor outcome as assessed by the otarod test: significant improvement
[2]
  lipid solubility: low
[3]
  brain penetration of Evans blue: reduced
Brain injured animals [4]
  brain water accumulation (i.e. cerebral oedema): significant reduction
Brain injured animals [5]; 24.6 mg/kg
  cognitive outcome of brain injured animals: significantly improved
Brain injured animals [5]; [6]
  cognitive outcome as assessed by the Barnes Circular Maze: significant improvement
